According to US11691980B2, “Liphagal analog and multi-targeted kinase inhibitor containing liphagal or analog thereof” (TOHOKU UNIVERSITY, priority 2017, dated 2023):

What was measured:
Assay in all cases: mobility shift assay
Type in all cases: biochemical
[1] = target: T1, LYNa (Homo sapiens, UniProt P07948)
T1 construct: purchased Carna Biosciences

[2] = target: PIM2 (Homo sapiens, UniProt Q9P1W9)
[3] = target: T2, MAP3K2_Cascade (Homo sapiens, UniProt Q9Y2U5)
T2 construct: purchased Carna Biosciences

[4] = target: T3, PGK (Homo sapiens, UniProt Q13976)
T3 construct: purchased Carna Biosciences
T3 sequence (Q13976 whole entry): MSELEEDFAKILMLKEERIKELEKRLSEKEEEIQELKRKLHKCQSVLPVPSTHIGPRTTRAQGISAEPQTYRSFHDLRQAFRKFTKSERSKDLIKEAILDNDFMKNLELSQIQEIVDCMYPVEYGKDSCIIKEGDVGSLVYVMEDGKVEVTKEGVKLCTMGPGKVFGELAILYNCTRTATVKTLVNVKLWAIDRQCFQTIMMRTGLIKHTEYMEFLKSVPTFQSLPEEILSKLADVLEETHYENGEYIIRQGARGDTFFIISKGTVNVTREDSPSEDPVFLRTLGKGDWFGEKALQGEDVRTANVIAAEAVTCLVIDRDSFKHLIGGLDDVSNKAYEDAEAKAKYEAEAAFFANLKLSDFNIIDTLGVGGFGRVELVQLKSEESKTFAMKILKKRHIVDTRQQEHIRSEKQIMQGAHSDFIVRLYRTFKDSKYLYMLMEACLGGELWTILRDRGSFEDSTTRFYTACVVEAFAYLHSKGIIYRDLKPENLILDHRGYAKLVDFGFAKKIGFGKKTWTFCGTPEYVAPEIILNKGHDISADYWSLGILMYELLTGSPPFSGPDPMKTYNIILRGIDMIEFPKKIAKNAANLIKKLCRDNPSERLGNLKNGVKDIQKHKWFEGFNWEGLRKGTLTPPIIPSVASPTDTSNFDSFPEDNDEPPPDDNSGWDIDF

[5] = system: TRK1; settings: 10 μM
[6] = target: T4, MAPKAPK3 (Homo sapiens, UniProt Q16644)
T4 construct: purchased Carna Biosciences
T4 sequence (Q16644 whole entry): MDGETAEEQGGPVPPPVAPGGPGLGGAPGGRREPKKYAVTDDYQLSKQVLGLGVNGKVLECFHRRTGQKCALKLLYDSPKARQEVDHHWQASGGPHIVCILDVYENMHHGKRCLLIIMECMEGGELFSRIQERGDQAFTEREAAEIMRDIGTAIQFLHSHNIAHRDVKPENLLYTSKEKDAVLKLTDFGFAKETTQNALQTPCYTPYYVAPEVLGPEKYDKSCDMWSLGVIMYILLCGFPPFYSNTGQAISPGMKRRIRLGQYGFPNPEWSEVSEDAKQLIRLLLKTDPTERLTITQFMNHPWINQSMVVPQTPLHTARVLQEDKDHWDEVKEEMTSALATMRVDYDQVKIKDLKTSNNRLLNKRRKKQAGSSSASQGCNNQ

[7] = target: T5, MRCKα (Homo sapiens, UniProt Q5VT25)
T5 construct: purchased Carna Biosciences

[8] = target: T6, CLK3 (Homo sapiens, UniProt P49761)
T6 construct: purchased Carna Biosciences
T6 sequence (P49761 whole entry): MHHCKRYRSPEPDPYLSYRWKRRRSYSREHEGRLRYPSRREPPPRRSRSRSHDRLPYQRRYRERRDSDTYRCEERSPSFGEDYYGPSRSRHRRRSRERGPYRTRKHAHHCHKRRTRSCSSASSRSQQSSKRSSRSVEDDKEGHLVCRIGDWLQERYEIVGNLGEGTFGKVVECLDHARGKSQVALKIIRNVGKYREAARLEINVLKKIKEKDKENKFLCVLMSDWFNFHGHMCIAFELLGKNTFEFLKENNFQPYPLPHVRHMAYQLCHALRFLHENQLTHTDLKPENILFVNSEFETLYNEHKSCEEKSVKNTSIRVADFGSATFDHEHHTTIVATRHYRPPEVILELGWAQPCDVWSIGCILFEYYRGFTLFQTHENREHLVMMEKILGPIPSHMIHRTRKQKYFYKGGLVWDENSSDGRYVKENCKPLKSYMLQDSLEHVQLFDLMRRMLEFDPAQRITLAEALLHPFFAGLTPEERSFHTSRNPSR

[9] = target: T7, EGFR(T790M) (Homo sapiens, UniProt P00533, T790M)
T7 construct: purchased Carna Biosciences

[10] = target: T8, WNK3 (Homo sapiens, UniProt Q9BYP7)
T8 construct: purchased Carna Biosciences

[11] = target: T9, PKCζ (Homo sapiens, UniProt Q05513)
T9 construct: purchased Carna Biosciences

[12] = target: T10, PKACα (Homo sapiens, UniProt P17612)
T10 construct: purchased Carna Biosciences

[13] = target: T11, NEK4 (Homo sapiens, UniProt P51957)
T11 construct: purchased Carna Biosciences

[14] = target: T12, MAP4K2 (Homo sapiens, UniProt Q12851)
T12 construct: purchased Carna Biosciences

[15] = target: T13, BRSK2 (Homo sapiens, UniProt Q8IWQ3)
T13 construct: purchased Carna Biosciences

[16] = target: T14, DAPK1 (Homo sapiens, UniProt P53355)
T14 construct: purchased Carna Biosciences

[17] = target: CDK4/CycD3 (Homo sapiens, UniProt P11802)
Sequence of CDK4/CycD3 (P11802 whole entry): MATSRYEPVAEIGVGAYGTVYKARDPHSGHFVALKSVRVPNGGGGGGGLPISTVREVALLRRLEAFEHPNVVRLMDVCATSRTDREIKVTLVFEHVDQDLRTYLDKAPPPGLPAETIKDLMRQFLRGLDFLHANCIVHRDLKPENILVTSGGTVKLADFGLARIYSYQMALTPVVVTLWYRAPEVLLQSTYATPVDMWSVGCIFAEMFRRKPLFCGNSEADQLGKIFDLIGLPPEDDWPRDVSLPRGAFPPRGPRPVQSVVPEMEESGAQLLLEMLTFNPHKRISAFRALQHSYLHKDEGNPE
Sequence of CDK4/CycD3 (P30281 whole entry partner): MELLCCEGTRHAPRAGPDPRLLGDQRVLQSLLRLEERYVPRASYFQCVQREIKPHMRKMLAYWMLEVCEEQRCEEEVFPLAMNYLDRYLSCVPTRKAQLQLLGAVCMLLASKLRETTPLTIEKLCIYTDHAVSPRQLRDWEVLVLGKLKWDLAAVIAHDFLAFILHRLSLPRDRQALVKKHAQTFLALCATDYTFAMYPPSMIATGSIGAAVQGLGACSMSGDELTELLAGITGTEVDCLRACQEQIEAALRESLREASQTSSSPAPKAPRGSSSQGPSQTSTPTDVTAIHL

[18] = target: T15, PDHK4 (Homo sapiens, UniProt Q16654)
T15 construct: purchased Carna Biosciences

[19] = target: T16, MET(M125DT) (Homo sapiens, UniProt P08581, M1250T)
T16 construct: purchased Carna Biosciences

[20] = system: ABL(E265K); settings: 10 μM
[21] = target: T17, FRK (Homo sapiens, UniProt P42685)
T17 construct: purchased Carna Biosciences

[22] = target: T18, RAF1_Cascade (Homo sapiens, UniProt P04049)
T18 construct: purchased Carna Biosciences
T18 sequence (P04049 whole entry): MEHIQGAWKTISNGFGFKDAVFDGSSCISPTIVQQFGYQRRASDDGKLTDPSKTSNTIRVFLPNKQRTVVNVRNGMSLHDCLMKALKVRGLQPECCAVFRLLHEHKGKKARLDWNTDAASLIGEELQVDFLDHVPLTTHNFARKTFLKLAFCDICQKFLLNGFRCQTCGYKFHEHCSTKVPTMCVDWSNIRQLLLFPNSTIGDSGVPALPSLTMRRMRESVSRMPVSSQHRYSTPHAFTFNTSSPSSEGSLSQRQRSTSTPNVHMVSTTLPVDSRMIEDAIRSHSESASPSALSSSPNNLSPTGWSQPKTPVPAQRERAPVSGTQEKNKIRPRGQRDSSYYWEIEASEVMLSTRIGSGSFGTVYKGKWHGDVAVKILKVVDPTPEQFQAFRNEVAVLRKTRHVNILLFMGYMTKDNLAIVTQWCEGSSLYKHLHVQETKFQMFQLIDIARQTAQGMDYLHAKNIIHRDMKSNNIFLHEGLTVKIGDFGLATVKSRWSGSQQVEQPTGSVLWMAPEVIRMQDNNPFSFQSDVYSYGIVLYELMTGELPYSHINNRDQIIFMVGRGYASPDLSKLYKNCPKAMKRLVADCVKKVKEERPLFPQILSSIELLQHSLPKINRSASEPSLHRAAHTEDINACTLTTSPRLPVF

[23] = target: T19, TSSK2 (Homo sapiens, UniProt Q96PF2)
T19 construct: purchased Carna Biosciences

[24] = target: T20, PKCθ (Homo sapiens, UniProt Q04759)
T20 construct: purchased Carna Biosciences

[25] = target: T21, AMFKα2/β1/γ1 (Homo sapiens, UniProt P54646)
T21 construct: purchased Carna Biosciences

[26] = target: T22, CaMK2γ (Homo sapiens, UniProt Q13555)
T22 construct: purchased Carna Biosciences

[27] = target: T23, PKACγ (Homo sapiens, UniProt P22612)
T23 construct: purchased Carna Biosciences

[28] = target: T24, FTI1 (Homo sapiens, UniProt P17948)
T24 construct: purchased Carna Biosciences

[29] = target: T25, PRKX (Homo sapiens, UniProt P51817)
T25 construct: purchased Carna Biosciences

[30] = target: T26, MARK3 (Homo sapiens, UniProt P27448)
T26 construct: purchased Carna Biosciences

[31] = target: T27, MET (Homo sapiens, UniProt P08581)
T27 construct: purchased Carna Biosciences
T27 sequence (P08581 25-1390): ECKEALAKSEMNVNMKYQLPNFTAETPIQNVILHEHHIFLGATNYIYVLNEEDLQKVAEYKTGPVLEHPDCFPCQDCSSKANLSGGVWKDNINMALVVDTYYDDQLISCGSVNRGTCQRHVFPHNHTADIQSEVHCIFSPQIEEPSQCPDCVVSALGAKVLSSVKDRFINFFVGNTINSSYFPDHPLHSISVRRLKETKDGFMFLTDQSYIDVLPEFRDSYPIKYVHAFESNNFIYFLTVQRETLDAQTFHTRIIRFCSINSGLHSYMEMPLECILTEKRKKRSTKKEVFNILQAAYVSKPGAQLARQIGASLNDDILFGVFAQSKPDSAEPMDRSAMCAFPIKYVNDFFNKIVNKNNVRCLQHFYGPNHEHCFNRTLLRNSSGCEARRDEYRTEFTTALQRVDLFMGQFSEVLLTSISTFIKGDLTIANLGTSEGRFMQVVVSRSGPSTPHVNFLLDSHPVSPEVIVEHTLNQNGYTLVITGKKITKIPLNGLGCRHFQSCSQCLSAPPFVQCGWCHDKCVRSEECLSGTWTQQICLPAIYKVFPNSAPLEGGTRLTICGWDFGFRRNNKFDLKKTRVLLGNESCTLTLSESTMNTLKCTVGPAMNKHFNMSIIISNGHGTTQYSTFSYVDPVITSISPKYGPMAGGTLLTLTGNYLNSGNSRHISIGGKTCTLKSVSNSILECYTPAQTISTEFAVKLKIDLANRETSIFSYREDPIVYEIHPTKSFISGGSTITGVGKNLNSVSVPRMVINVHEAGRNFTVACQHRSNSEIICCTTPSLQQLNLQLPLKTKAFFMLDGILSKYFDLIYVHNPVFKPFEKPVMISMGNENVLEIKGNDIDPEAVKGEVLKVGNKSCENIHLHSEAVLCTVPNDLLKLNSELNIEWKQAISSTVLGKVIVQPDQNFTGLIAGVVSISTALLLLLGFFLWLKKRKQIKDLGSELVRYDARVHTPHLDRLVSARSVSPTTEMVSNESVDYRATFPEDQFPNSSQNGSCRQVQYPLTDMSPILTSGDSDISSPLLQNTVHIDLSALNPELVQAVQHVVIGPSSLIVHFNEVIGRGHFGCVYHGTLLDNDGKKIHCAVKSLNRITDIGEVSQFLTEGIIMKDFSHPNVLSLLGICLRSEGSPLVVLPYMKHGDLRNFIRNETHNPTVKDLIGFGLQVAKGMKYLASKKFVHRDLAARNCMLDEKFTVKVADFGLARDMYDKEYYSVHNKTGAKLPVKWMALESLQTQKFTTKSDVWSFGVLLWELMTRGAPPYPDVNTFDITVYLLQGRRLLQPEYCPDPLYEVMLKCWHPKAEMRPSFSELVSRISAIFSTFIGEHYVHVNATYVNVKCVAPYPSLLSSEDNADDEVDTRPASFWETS

[32] = target: T28, ALK(L1196M) (Homo sapiens, UniProt Q9UM73, L1196M)
T28 construct: purchased Carna Biosciences

[33] = target: T29, SkMLCK (Homo sapiens, UniProt Q9H1R3)
T29 construct: purchased Carna Biosciences

[34] = target: T30, HPK3 (Homo sapiens, UniProt Q9H422)
T30 construct: purchased Carna Biosciences

[35] = target: T31, NDR2 (Homo sapiens, UniProt Q9Y2H1)
T31 construct: purchased Carna Biosciences

[36] = system: MAP3K3_Cascade; settings: 10 μM
[37] = target: T32, MET(D1228H) (Homo sapiens, UniProt P08581, D1228H)
T32 construct: purchased Carna Biosciences

[38] = target: T33, RSK3 (Homo sapiens, UniProt Q15349)
T33 construct: purchased Carna Biosciences

[39] = target: T34, MGC42105 (Homo sapiens, UniProt Q8IY84)
T34 construct: purchased Carna Biosciences

[40] = target: T35, MAPKAPK5 (Homo sapiens, UniProt Q8IW41)
T35 construct: purchased Carna Biosciences

[41] = system: MAP3K4_Cascade; settings: 10 μM
[42] = target: T36, PAK6 (Homo sapiens, UniProt Q9NQU5)
T36 construct: purchased Carna Biosciences

Sequence of PIM2 (Q9P1W9 whole entry): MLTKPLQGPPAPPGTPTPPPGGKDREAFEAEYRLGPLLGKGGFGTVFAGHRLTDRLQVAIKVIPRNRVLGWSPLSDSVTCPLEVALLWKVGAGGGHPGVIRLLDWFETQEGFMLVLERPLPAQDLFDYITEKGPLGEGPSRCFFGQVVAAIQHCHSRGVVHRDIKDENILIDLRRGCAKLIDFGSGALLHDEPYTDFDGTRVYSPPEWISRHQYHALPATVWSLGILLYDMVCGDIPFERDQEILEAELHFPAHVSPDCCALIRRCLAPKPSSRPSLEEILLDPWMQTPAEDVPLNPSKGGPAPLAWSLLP
T1 sequence (P07948 whole entry): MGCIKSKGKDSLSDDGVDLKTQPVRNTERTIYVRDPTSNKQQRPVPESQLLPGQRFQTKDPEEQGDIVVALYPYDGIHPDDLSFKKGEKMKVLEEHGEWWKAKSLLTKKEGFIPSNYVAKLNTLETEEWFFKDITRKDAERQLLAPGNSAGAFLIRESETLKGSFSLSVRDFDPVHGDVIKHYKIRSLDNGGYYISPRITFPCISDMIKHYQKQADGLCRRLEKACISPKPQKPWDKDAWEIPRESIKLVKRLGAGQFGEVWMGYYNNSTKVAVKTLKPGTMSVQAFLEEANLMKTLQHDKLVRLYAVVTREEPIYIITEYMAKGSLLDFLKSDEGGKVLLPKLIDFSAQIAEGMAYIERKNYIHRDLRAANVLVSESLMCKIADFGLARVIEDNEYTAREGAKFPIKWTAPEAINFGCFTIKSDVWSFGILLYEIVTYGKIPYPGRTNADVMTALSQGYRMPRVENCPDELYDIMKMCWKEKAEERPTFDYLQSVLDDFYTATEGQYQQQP

Compound: C[C@@H]1CC[C@H]2C(C)(C)CCC[C@]2(C)c2c1oc1c(C=O)c(O)c(O)cc21 [LG-1, liphagal]
- inhibition at 10 µM [1]: 7.6%
- inhibition at 10 µM ([2]; PIM2): 63.5%
- inhibitory activity against PIM2 ([2]; in words, 10 μM): potent inhibitory activity
- inhibition at 10 µM [3]: 16.8%
- inhibition at 10 µM [4]: 6.1%
- % Inhibition [5]: −0.5%
- inhibition at 10 µM [6]: 4.8%
- inhibition at 10 µM [7]: 16%
- inhibition at 10 µM [8]: 5.7%
- inhibition at 10 µM [9]: -2%
- inhibition at 10 µM [10]: 19%
- inhibition at 10 µM [11]: -7.2%
- inhibition at 10 µM [12]: 2.3%
- inhibition at 10 µM [13]: 8.7%
- inhibition at 10 µM [14]: 5%
- inhibition at 10 µM [15]: 9.3%
- inhibition at 10 µM [16]: 1.8%
- inhibition at 10 µM ([17]; CDK4/CycD3): 63.4%
- inhibitory activity against CDK4 ([17]; in words, 10 μM): Potent inhibitory activity
- inhibition at 10 µM [18]: 7.4%
- inhibition at 10 µM [19]: -0.2%
- % Inhibition [20]: −3.3%
- inhibition at 10 µM [21]: 1.4%
- inhibition at 10 µM [22]: 15.3%
- inhibition at 10 µM [23]: 21%
- inhibition at 10 µM [24]: -15%
- inhibition at 10 µM [25]: 44.1%
- inhibition at 10 µM [26]: 3.8%
- inhibition at 10 µM [27]: 18.7%
- inhibition at 10 µM [28]: 10.4%
- inhibition at 10 µM [29]: 20%
- inhibition at 10 µM [30]: -2.9%
- inhibition at 10 µM [31]: -1.3%
- inhibition at 10 µM [32]: -1.5%
- inhibition at 10 µM [33]: -1.3%
- inhibition at 10 µM [34]: 20.5%
- inhibition at 10 µM [35]: -4.9%
- % Inhibition [36]: 48.8%
- inhibition at 10 µM [37]: 2.9%
- inhibition at 10 µM [38]: 8.1%
- inhibition at 10 µM [39]: -1.7%
- inhibition at 10 µM [40]: 4.8%
- % Inhibition [41]: 62.9%
- inhibition at 10 µM [42]: -99.3%
